Test results reported in patent US6150359A, “Naphthyridinones for inhibiting protein tyrosine kinase and cell cycle kinase mediated cellular proliferation” (Warner-Lambert Company, priority 2000, dated 2000).

Tests used:
[1] = target: T1, c-Src (Homo sapiens, UniProt P12931); assay: c-Src kinase assay, 32P incorporation into polyglutamate-tyrosine; assay type: biochemical; details: 5 μM ATP
T1 construct: made in house; host or cells: baculovirus infected insect cells
Method: Other Kinases. c-Src kinase is purified from baculovirus infected insect cell lysates using an antipeptide monoclonal antibody directed against the N-terminal 2-17 amino acids as described previously by Fry, et al., Anticancer Drug Design, 1994;9:331-351. Protein kinase C (PKC.) is obtained as a rat brain preparation from Promega.
c-Src. The antibody, covalently linked to 0.65-μm latex beads, is added to a suspension of insect cell lysis buffer comprised of 150 mM NaCl, 50 mM Tris pH 7.5, 1 mM DTT, 1% NP-40, 2 mM EGTA, 1 mM sodium vanadate, 1 mM PMSF, 1 μg/mL each of leupeptin, pepstatin, and aprotinin. Insect cell lysate containing the c-Src protein is incubated with these beads for 3 to 4 hours at 4° C. with rotation. At the end of the lysate incubation, the beads are rinsed three times in lysis buffer, resuspended in lysis buffer containing 10% glycerol, and frozen. These latex beads are thawed, rinsed three times in assay buffer which is comprised of 40 mM tris pH 7.5, 5 mM magnesium chloride, and suspended in the same buffer. In a Millipore 96-well plate with a 0.65 μm polyvinylidine membrane bottom are added the reaction components: 10-μL c-Src beads, 10 μL of 2.5 mg/mL polyglutamate-tyrosine substrate, 5 μM ATP containing 0.2 μCi labeled ^32 P-ATP, 5 μL DMSO containing inhibitors or as a solvent control, and buffer to make the final volume 125 μL. The reaction is started at room temperature by addition of the ATP and quenched 10 minutes later by the addition of 125 μL of 30% TCA, 0.1 M sodium pyrophosphate for 15 minutes on ice. The plate is then filtered and the wells washed with two 250-μL aliquots of 15% TCA, 0.1 M pyrophosphate. The filters are punched, counted in a liquid scintillation counter, and the data examined for inhibitory activity in comparison to a known inhibitor such as erbstatin. The method is described more fully in J. Med. Chem., 1994;37:598-609.

[2] = target: cdk4/cyclinD (Homo sapiens, UniProt P11802); assay: Cyclin-Dependent Kinase 4 (cdk4/cyclinD) Assay; assay type: biochemical; details: 25 μM ATP, retinoblastoma substrate
Method: Cyclin-Dependent Kinase 4 (cdk4/cyclinD) Assay
Enzyme assays for IC50 determinations and kinetic evaluation were performed in 96-well filter plates (Millipore MADVN6550). The total volume was 0.1 mL containing a final concentration of 20 mM TRIS (tris[hydroxymethyl]aminomethane), at pH 7.4, 50 mM NaCl, 1 mM dithiothreitol, 10 mM MgCl2, 25 μM ATP containing 0.25 μCi of [^32 P]ATP, 20 ng of cdk4/cyclinD, 1 μg of retinoblastoma, and appropriate dilutions of a compound of the present invention. All components except the ATP were added to the wells, and the plate was placed on a plate mixer for 2 minutes. The reaction was started by adding [^32 P]ATP and the plate was incubated at 25° C. for 15 minutes. The reaction was terminated by addition of 0.1 mL of 20% trichloroacetic acid (TCA). The plate was kept at 4° C. for at least 1 hour to allow the substrate to precipitate. The wells were then washed 5 times with 0.2 mL of 10% TCA and ^32 P incorporation was determined with a beta plate counter (Wallace Inc., Gaithersburg, Md.).

[3] = target: T2, PDGFr (mouse PDGF-β receptor tyrosine kinase) (Mus musculus, UniProt P05622); assay: PDGFr tyrosine kinase assay, 32P incorporation into glutamate-tyrosine copolymer; assay type: biochemical; details: 50 μM ATP
T2 construct: PCR primers are designed to amplify a fragment of DNA that codes for the intracellular tyrosine kinase domain; made in house; host or cells: Sf9 insect cells (baculovirus), cell lysate
Method: (§1) Platelet Derived Growth Factor Receptor (PDGFr) and Fibroblast Growth Factor Receptor (FGFr). Full length cDNAs for the mouse PDGF-β and human FGF-1 (flg) receptor tyrosine kinases were obtained from J. Escobedo and are prepared as described in J. Biol. Chem., 1991;262:1482-1487. PCR primers are designed to amplify a fragment of DNA that codes for the intracellular tyrosine kinase domain. The fragment is melded into a baculovirus vector, cotransfected with AcMNPV DNA, and the recombinant virus isolated. SF9 insect cells are infected with the virus to overexpress the protein, and the cell lysate is used for the assay.
(§2) PDGFr and FGFr. […] Briefly, to each well is added 82.5 μL of incubation buffer containing 25 mM Hepes (pH 7.0), 150 mM NaCl, 0.1% Triton X-100, 0.2 mM PMSF, 0.2 mM sodium vanadate, 10 mM manganese chloride, and 750 μg/mL of poly (4:1) glutamate-tyrosine followed by 2.5 μL of inhibitor and 5 μL of enzyme lysate (7.5 μg/μL FGFR-TK or 6.0 μg/μL PDGFR-TK) to initiate the reaction. Following a 10 minute incubation at 25° C., 10 μL of [γ^32 P]ATP (0.4 μCi plus 50 μM ATP) is added to each well, and samples are incubated for an additional 10 minutes at 25° C. The reaction is terminated by the addition of 100 μL of 30% trichloroacetic acid (TCA) containing 20 mM sodium pyrophosphate and precipitation of material onto glass fiber filter mats (Wallac). […] Nonspecific activity is defined as radioactivity retained on the filters following incubation of samples with buffer alone; (no enzyme). Specific enzymatic activity is defined as total activity (enzyme plus buffer) minus nonspecific activity.

[4] = target: cdk2/cyclinE (Homo sapiens, UniProt P24941); assay: Cyclin-Dependent Kinase Assay, cdk2/cyclinE; assay type: biochemical; details: retinoblastoma substrate
Method: (§3) Cyclin-Dependent Kinase Assays (cdk2/cyclinE, cdk2/cyclinA, cdkl/cyclinB)
(§4) All components except the ATP were added to the wells, and the plate was placed on a plate mixer for 2 minutes. The reaction was begun by addition of [^32 P]ATP, and the plate was incubated at 25° C. for 15 minutes. The reaction was terminated by addition of 0.1 mL of 20% TCA. The plate was kept at 4° C. for least 1 hour to allow the substrate to precipitate. The wells were then washed 5 times with 0.2 mL of 10% TCA and ^32 P incorporation determined with a beta plate counter (Wallace Inc., Gaithersburg, Md.).

[5] = target: T3, FGFr (human FGF-1 (flg) receptor tyrosine kinase) (Homo sapiens, UniProt P11362); assay: FGFr tyrosine kinase assay, 32P incorporation into glutamate-tyrosine copolymer; assay type: biochemical; details: 50 μM ATP; read-out: FGFr IC50
T3 construct: PCR primers are designed to amplify a fragment of DNA that codes for the intracellular tyrosine kinase domain; made in house; host or cells: Sf9 insect cells (baculovirus), cell lysate
Method: as §1, §2

[6] = target: T4, insulin receptor (INSr) (Homo sapiens, UniProt P06213); assay: Insulin receptor (INSr) kinase assay; assay type: biochemical; details: 10 mM manganese chloride
T4 construct: An assay using the intracellular kinase domains of insulin receptor (INSr)
Method: EGFr. Enzyme assays for IC50 determinations are performed in 96-well filter plates (Millipore MADVN6550). The total volume is 0.1 mL containing 20 mM Hepes, pH 7.4, 50 μM sodium vanadate, 40 mM magnesium chloride, 10 μM ATP containing 0.5 μCi of [^32 P]ATP, 20 μg of polyglutamic acid/tyrosine (Sigma Chemical Co., St. Louis, Mo.), 10 ng of EGF receptor tyrosine kinase and appropriate dilutions of inhibitor. All components except the ATP are added to the well, and the plate is incubated with shaking for 10 minutes at 25° C. The reaction is started by adding [^32 P]ATP, and the plate is incubated at 25° C. for 10 minutes. The reaction is terminated by addition of 0.1 mL of 20% trichloroacetic acid (TCA). The plate is kept at 4° C. for at least 15 minutes to allow the substrate to precipitate. The wells are then washed five times with 0.2 mL of 10% TCA, and ^32 P incorporation is determined with a Wallac beta plate counter.
Other Kinases. An assay using the intracellular kinase domains of insulin receptor (INSr) is performed as described for the EGF receptor except that 10 mM manganese chloride is included in the reaction. The PKC assay is performed as previously described by Martiny-Baron, et al., J. Biol. Chem., 1993;268:9194-9197.

[7] = target: cdk2/cyclinA (Homo sapiens, UniProt P24941); assay: Cyclin-Dependent Kinase Assay, cdk2/cyclinA; assay type: biochemical; details: 12 mM ATP, retinoblastoma substrate
Method: as §3, §4

[8] = target: cdk1/cyclinB (Homo sapiens, UniProt P06493); assay: Cyclin-Dependent Kinase Assay, cdk1/cyclinB; assay type: biochemical; details: 12 mM ATP, retinoblastoma substrate
Method: as §3, §4

[9] = system: human tumor cell lines; details: approximately 60 NCI human tumor cell lines; cited from earlier work
[10] = system: cdk2; details: cited from earlier work
[11] = system: breast and lung cancer cells; details: several types of breast and lung cancer cells; cited from earlier work
[12] = system: cdk4; details: cited from earlier work

cdk1/cyclinB, sequence (P06493 whole entry, species assumed): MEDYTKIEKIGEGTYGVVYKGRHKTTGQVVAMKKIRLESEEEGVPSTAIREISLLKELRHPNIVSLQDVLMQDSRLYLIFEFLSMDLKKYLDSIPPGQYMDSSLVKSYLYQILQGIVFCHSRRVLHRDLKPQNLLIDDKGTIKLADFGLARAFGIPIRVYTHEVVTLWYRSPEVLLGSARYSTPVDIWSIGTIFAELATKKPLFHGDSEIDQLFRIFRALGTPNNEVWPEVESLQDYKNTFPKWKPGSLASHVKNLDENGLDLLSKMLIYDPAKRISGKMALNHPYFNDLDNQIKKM
cdk1/cyclinB, sequence (P14635 whole entry partner, species assumed): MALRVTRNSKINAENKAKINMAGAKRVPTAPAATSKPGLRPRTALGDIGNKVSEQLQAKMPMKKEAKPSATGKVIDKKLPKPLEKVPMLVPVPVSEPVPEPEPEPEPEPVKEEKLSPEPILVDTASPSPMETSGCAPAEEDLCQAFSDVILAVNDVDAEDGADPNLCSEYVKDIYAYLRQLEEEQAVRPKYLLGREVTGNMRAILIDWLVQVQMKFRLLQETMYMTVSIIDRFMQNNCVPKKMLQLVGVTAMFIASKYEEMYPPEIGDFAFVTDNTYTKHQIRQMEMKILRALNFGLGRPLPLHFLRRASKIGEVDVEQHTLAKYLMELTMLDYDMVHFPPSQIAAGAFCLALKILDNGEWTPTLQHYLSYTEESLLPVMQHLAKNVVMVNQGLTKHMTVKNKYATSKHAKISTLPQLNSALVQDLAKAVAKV
T1 sequence (P12931 whole entry, species assumed): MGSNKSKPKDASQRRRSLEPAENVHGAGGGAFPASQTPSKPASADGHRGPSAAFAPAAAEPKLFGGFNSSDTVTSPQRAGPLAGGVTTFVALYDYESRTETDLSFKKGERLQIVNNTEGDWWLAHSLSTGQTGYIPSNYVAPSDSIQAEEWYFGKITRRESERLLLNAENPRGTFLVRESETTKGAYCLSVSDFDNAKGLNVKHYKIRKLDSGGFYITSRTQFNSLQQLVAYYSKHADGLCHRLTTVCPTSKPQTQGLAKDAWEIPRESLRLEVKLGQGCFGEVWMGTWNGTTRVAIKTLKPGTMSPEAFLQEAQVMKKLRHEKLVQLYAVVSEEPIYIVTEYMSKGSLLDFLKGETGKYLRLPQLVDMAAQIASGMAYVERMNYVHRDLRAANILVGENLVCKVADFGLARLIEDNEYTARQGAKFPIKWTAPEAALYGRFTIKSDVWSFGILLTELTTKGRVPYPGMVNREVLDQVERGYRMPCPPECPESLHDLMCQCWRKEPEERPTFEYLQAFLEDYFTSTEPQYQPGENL
cdk4/cyclinD, sequence (P11802 whole entry, species assumed): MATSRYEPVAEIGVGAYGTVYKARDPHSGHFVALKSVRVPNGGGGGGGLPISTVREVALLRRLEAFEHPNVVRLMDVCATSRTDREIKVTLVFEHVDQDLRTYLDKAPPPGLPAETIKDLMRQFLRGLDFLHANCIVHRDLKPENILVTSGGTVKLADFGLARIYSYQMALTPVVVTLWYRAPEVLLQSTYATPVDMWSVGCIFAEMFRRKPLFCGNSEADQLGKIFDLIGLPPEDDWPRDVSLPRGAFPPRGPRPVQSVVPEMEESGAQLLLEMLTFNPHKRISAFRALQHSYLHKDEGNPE
cdk4/cyclinD, sequence (P24385 whole entry partner, species assumed): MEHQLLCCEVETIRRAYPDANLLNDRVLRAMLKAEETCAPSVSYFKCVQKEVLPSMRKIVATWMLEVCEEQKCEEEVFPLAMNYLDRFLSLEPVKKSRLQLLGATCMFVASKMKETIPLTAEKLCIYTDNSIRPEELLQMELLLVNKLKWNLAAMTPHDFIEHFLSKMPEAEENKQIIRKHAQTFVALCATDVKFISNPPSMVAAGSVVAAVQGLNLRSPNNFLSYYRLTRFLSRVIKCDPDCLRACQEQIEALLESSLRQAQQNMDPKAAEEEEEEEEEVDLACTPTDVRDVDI
T3 sequence (P11362 478-767 limits assumed): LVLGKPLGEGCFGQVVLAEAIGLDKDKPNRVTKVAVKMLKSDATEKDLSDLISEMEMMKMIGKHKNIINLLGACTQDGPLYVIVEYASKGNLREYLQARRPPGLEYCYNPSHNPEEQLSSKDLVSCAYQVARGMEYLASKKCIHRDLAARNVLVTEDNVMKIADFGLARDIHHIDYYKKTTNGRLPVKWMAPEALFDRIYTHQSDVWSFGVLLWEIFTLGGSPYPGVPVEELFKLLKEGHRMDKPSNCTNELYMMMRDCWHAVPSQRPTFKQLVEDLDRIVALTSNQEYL
T2 sequence (P05622 599-961 limits assumed): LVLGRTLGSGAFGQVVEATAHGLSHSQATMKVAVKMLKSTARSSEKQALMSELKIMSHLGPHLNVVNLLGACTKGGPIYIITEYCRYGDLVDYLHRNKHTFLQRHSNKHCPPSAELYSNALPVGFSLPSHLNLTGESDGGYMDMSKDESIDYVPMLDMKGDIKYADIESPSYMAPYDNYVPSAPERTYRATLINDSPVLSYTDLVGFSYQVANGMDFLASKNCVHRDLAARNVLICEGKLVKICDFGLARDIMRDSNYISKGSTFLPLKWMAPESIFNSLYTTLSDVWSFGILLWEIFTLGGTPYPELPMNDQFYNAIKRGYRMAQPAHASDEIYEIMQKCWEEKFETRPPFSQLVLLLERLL
T4 sequence (P06213 1023-1298 limits assumed, species assumed): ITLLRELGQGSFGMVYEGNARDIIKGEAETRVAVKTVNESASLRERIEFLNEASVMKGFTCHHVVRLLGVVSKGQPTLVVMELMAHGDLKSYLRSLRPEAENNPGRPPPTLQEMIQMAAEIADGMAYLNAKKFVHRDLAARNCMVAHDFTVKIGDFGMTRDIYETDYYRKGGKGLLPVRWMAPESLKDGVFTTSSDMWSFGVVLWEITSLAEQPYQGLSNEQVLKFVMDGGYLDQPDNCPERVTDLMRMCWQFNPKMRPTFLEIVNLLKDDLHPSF

IC50 [1] [µM]	IC50 [2] [µM]	IC50 [3] [µM]	IC50 [4] [µM]	IC50 [5] [µM]	IC50 [6] [µM]	IC50 [7] [µM]	IC50 [8] [µM]	SMILES	inhibition of proliferation of human tumor cell lines [9]	inhibition of cdk2 [10]	inhibition of breast and lung cancer cells [11]	inhibition of cdk4 [12]
< 50	1.5	> 50	5	12.4				CCn1c(=O)ccc2cnc(Nc3ccc(N4CCCCC4)cc3)cc21 [Example AA, 1-ethyl-7-(4-(piperidin-1-yl)phenylamino)-1H -[1,6]naphthyridin-2-one]				
> 50					> 50			CN(C)c1cc2c(cn1)cc(-c1c(Cl)cccc1Cl)c(=O)n2C [Example C, 3-(2,6-dichlorophenyl)-7-dimethylamino-1-methyl-1H -[1,6]naphthyridin-2-one]				
> 50	4.2	> 50	1.1	17		0.88	1.9	CCn1c(=O)ccc2cnc(Nc3ccccc3)cc21 [Example W, 1-ethyl-7-phenylamino-1H-[1,6]naphthyridin-2-one]				
> 50	2.6	5 to 50	1.3	10.4		0.83	1.5	CCn1c(=O)ccc2cnc(Nc3ccc(OC)cc3)cc21 [Example X, 1-ethyl-7-(4-methoxyphenylamino)-1H-[1,6]naphthyridin-2-one]				
11.4	0.35	5.6	5.8	1.4		3.5	7.4	CCn1c(=O)ccc2cnc(Nc3ccc(N4CCN(C)CC4)cc3)cc21 [Example Y, 1-ethyl-7-[4-(4-methylpiperazin-1-yl)phenylamino]-1H-[1,6]naphthyridin-2-one]				
31	1.35	> 50	3	5.7		1.4	4	CCn1c(=O)ccc2cnc(Nc3ccc(N4CCOCC4)cc3)cc21 [Example Z, 1-ethyl-7-(4-(morpholin-4-yl)phenylamino)-1H -[1,6]naphthyridin-2-one]				
								Cn1cnc2c(NCc3ccccc3)nc(NCCO)nc21 [Olomoucine, 2-(hydroxyethylamine)-6-benzylamine-9-methylpurine]	shown to inhibit proliferation of approximately 60 different human tumor cell lines	potent inhibitor of cdk2 and cdk5		
								CN1CC[C@H](c2c(O)cc(O)c3c(=O)cc(-c4ccccc4Cl)oc23)[C@H](O)C1 [flavopiridol]		shown to inhibit cdk2 and cdk4	potent inhibitor of several types of breast and lung cancer cells	shown to inhibit cdk2 and cdk4
